Laboratory results published in patent US20040235784A1, “Combination preparations of 3-n-formylhydroxylaminopropyl phosphonic acid derivatives or 3-n-acetylhydroxylaminopropyl phosphonic acid derivatives combined with specific pharmaceutical active agents” (priority 2000, published 2004).

System: Plasmodium falciparum strains Dd2, 3D7 and HB3
Assay: Sensitivity of Plasmodium falciparum to fosmidomycin in combination with different compounds, semi-automatic test by [3H]-hypoxanthin incorporation into parasite DNA
Format: cell-based
Details: drug in combination with fosmidomycin, sum FIC <1 synergism, >1 antagonism, =1 addition
Description: The IC50-values of fosmidomycin and the respective combination partner were determined for the single compounds and in different ratios of mixture on microtitreplates. The results were defined as sum of fractional inhibitory concentration (sum fractional inhibitory concentration, FIC):
sum FIC=IC50 of fosmidomycin in mixture/IC50 of fosmidomycin alone+IC50 of the combination partners in mixture/IC50 of combination partner alone
Sum FIC-values <1 represent synergism, values >1 antargonism and values=1 addition.

Structure (SMILES)	sum FIC (P. falciparum strain 3D7)	sum FIC (P. falciparum strain Dd2)	sum FIC (P. falciparum strain HB3)
CC[C@H]1OC(=O)[C@H](C)[C@@H](O[C@H]2C[C@@](C)(OC)[C@@H](O)[C@H](C)O2)[C@H](C)[C@@H](O[C@@H]2O[C@H](C)C[C@H](N(C)C)[C@H]2O)[C@](C)(O)C[C@@H](C)CN(C)[C@H](C)[C@@H](O)[C@]1(C)O [azithromycin]	0.74	0.86	0.85
CCCCN(CCCC)CC(O)c1cc(Cl)cc2c1-c1ccc(Cl)cc1/C2=C/c1ccc(Cl)cc1 (stereo not drawn) [lumefantrin]	1.21	1.20	1.08
